Assay results taken from the NIST ThermoML archive (doi:10.1021/acs.jced.7b00221).
Numbers after ± are expanded uncertainties.

Experiments:
[1] = 100 kPa, Liquid; for mass density: Vibrating tube method; for viscosity: Cone and plate viscometry
[2] = xn = mol fraction of the nth substance listed; settings: 100 kPa, Liquid, Cone and plate viscometry

CCCCCC[n+]1ccn(C)c1.O=S(=O)([N-]S(=O)(=O)C(F)(F)F)C(F)(F)F
[1]
Settings	mass density [kg/m3]
283.15 K	1385.6 ± 4
288.15 K	1381 ± 4
293.15 K	1376.5 ± 4
295.15 K	1374.6 ± 4
298.15 K	1371.9 ± 4
303.15 K	1367.3 ± 4
308.15 K	1362.8 ± 4
313.15 K	1358.3 ± 4
318.15 K	1353.7 ± 4
323.15 K	1349.2 ± 4
328.15 K	1344.7 ± 4
333.15 K	1340.3 ± 4
338.15 K	1335.8 ± 4
343.15 K	1331.4 ± 4
348.15 K	1326.9 ± 4
353.15 K	1322.5 ± 4

CCCCCCCCCCCCCC[P+](CCCCCC)(CCCCCC)CCCCCC.O=[N+]([O-])c1cn[n-]c1 [trihexyl(tetradecyl)phosphonium 4-nitropyrazolide] + CCCCCC[n+]1ccn(C)c1.O=S(=O)([N-]S(=O)(=O)C(F)(F)F)C(F)(F)F
viscosity [mPa·s], [2]
Settings	278.15 K	283.15 K	288.15 K	293.15 K	298.15 K	303.15 K	308.15 K	313.15 K	318.15 K	323.15 K
x1 = 0.099	338 ± 43	241 ± 30	175 ± 22	132 ± 16	101 ± 12	80 ± 10	65 ± 8	52 ± 6	–	–
x1 = 0.2	528 ± 68	367 ± 47	261 ± 33	191 ± 24	144 ± 18	111 ± 14	88 ± 11	70 ± 8	57 ± 7	–
x1 = 0.3	831 ± 110	565 ± 73	393 ± 50	282 ± 35	208 ± 26	158 ± 19	122 ± 15	97 ± 12	78 ± 9	64 ± 8
x1 = 0.501	1594 ± 220	1055 ± 140	715 ± 93	499 ± 64	357 ± 45	264 ± 33	199 ± 25	153 ± 19	120 ± 15	96 ± 12
x1 = 0.695	2474 ± 350	1600 ± 220	1061 ± 140	726 ± 95	512 ± 66	371 ± 47	276 ± 34	209 ± 26	162 ± 20	128 ± 16
x1 = 0.797	2704 ± 380	1750 ± 240	1158 ± 160	788 ± 100	554 ± 71	400 ± 51	296 ± 37	222 ± 27	171 ± 21	134 ± 16
x1 = 0.898	3071 ± 440	1971 ± 270	1297 ± 180	880 ± 120	614 ± 80	441 ± 56	325 ± 41	244 ± 30	187 ± 23	146 ± 18

CC[P+](CC)(CC)COCCOC.O=S(=O)([N-]S(=O)(=O)C(F)(F)F)C(F)(F)F + CCCCCCC[P+](CC)(CC)CC.O=[N+]([O-])c1cn[n-]c1
[2], x2 = 0
Settings	viscosity [mPa·s]
278.15 K	84 ± 10
283.15 K	65 ± 8
288.15 K	51 ± 6

CC[P+](CC)(CC)COCCOC.O=S(=O)([N-]S(=O)(=O)C(F)(F)F)C(F)(F)F
[1]
Settings	viscosity [mPa·s]
278.15 K	84 ± 10
283.15 K	65 ± 8
288.15 K	51 ± 6
